According to US20250387359A1, “COMPOUNDS AND METHODS FOR THE TREATMENT OF PARASITIC INFECTIONS” (THE BOARD OF TRUSTEES OF THE UNIVERSITY OF ILLINOIS, priority 2019, published 2025):
“Also recorded” adds a separate entry of the source. Read-outs that look alike come from different tables or passages of the source.

Columns and labels:
Tolerability in mice = assay type: in vivo; conditions: daily oral gavage for 7 days, mice
Experimental: In vivo testing of the anti-Cryptosporidium effect of CpLDH inhibitors. Gamma interferon knockout mice (B6.129S7-Ifng), 8 weeks of age, were purchased from Charles River, USA. The care and use of the mice was done following the guidelines of protocol number 17024 approved by the University of Illinois at Urbana-Champaign, USA. The animals were allowed to acclimatize for 1 week before experiments commenced. Stock solutions of recombinant CpLDH inhibitors reconstituted in DMSO were diluted in sterile distilled water to reduce the final amount of DMSO in the solution to less than 1% (v/v) before administering them to mice. Prior to testing the anti-Cryptosporidium effect of the inhibitors in mice, the tolerability of each inhibitor was tested by oral gavage using varying dosages (100-2000 mg/kg body weight) of each inhibitor in groups of mice (three mice for each dose) daily for 7 days. Mice were observed daily for signs of toxicity including changes from normal physical activity, respiration, body temperature, feeding, posture, fur condition or occurrence of death. […] An equivalent volume of PBS containing a cocktail of penicillin (100 units/ml), streptomycin (100 μg/ml), chloramphenicol (34 μg/ml) and amphotericin (0.25 μg/ml) was added to the fecal samples and stored at 4° C. until use for quantification of C. parvum genomic DNA load. […]

[1] = Compound cytotoxicity assay (WST-1) in HCT-8 cells; assay type: cell-based, human; conditions: human; HCT-8 cells, 24 h, WST-1
Experimental: Compound cytotoxicity assay. […] A colorimetric assay using the cell proliferation reagent WST-1 (Roche, USA) for the quantification of cell viability was performed. […] When the cells were confluent, the old medium was replaced with fresh medium with or without varying concentrations of chemical compound. After 24 h of culture, 10 μl of the cell proliferation reagent WST-1, (for quantification of cell viability) was added to each well, mixed and the plates incubated for 1 h at 37 C with 5% CO2 in the dark. […] Molecular Devices, USA).

Cryptosporidium parvum = assay: In vitro anti-Cryptosporidium effect in HCT-8 cells (immunofluorescence assay); assay type: cell-based; conditions: HCT-8 cells; for IC50: Cryptosporidium parvum
Experimental: In vitro testing of the anti-Cryptosporidium effect of CpLDH inhibitors. HCT-8 cells were cultured in supplemented RPMI-1640 medium in 96-well plates. When the cells were confluent, old medium was replaced with fresh medium. To one set of wells, varying concentrations of recombinant CpLDH inhibitors (reconstituted in DMSO and diluted in RPMI medium) were added, while another set was left without inhibitors. Paromomycin was used as a positive control drug reconstituted in distilled sterile water. Then, 4×10^4 freshly excysted sporozoites were added to each well and incubated at 37° C. with 5% CO2. After 2 h incubation, varying concentrations of CpLDH inhibitors were added to the set of infected cells that were not treated initially. Control infected cells without inhibitors, but with added DMSO volumes equivalent to those used in the wells with inhibitors, were included. The cells were maintained in culture for a total of either 48 h or 72 h and processed for immunofluorescence assay as previously described (Int. J. Parasitol. 2017; 47(13), 867-874). Briefly, medium was decanted, and the cells fixed with methanol-acetic acid (9:1) for 2 minutes at room temperature. The cells were rehydrated and permeabilized by two successive washes with buffer (0.1% Triton X-100, 0.35 M NaCl, 0.13 M Tris-base, pH 7.6) and blocked with 5% normal goat serum, followed by staining with antibody to C. parvum (SporoGlo; Waterborn, Inc.) overnight at 4° C. The stained cells were washed twice with PBS, followed by water, and then imaged with an inverted fluorescence microscope. Fluorescence quantification was done using ImageJ version 1.37v software (NIH). Assays were performed in triplicate and repeated at least thrice.

C. parvum [2] = assay: Histopathology of distal small intestine of C. parvum infected mice; assay type: in vivo, Cryptosporidium parvum; conditions: lower small intestine, H&E, NSC158011 400 mg/kg, NSC10447 250, 500 or 1000 mg/kg, paromomycin 100 mg/kg
Experimental: In vivo testing of the anti-Cryptosporidium effect of CpLDH inhibitors. Gamma interferon knockout mice (B6.129S7-Ifng), 8 weeks of age, were purchased from Charles River, USA. The care and use of the mice was done following the guidelines of protocol number 17024 approved by the University of Illinois at Urbana-Champaign, USA. The animals were allowed to acclimatize for 1 week before experiments commenced. Stock solutions of recombinant CpLDH inhibitors reconstituted in DMSO were diluted in sterile distilled water to reduce the final amount of DMSO in the solution to less than 1% (v/v) before administering them to mice. Prior to testing the anti-Cryptosporidium effect of the inhibitors in mice, the tolerability of each inhibitor was tested by oral gavage using varying dosages (100-2000 mg/kg body weight) of each inhibitor in groups of mice (three mice for each dose) daily for 7 days. Mice were observed daily for signs of toxicity including changes from normal physical activity, respiration, body temperature, feeding, posture, fur condition or occurrence of death. […] The subsequent dosages of NSC10447 used in the mice infection assays were 250, 500 and 1000 mg/kg mouse body weight, while the NSC158011 dosages used were 100, 200 and 400 mg/kg mouse body weight. Mice were allocated to groups as follows: “Infected plus inhibitor treatment”; “Infected minus inhibitor treatment”; “Uninfected minus inhibitor treatment” and “Infected plus paromomycin treatment”. Each group contained at least three mice. Each mouse in the infection groups received 5,000 C. parvum oocysts (resuspended in 50 μl of PBS) by oral gavage. Mice were housed individually in cages lined with sterile gauze as bedding. […] An equivalent volume of PBS containing a cocktail of penicillin (100 units/ml), streptomycin (100 μg/ml), chloramphenicol (34 μg/ml) and amphotericin (0.25 μg/ml) was added to the fecal samples and stored at 4° C. until use for quantification of C. parvum genomic DNA load. […]

Plasmodium falciparum = conditions: previously shown; cited from earlier work
[3] = target: T1, Plasmodium falciparum phosphoethanolamine methyltransferase enzyme (Plasmodium falciparum, UniProt Q8IDQ9); conditions: previously shown; cited from earlier work
T1 sequence (Q8IDQ9 1-266): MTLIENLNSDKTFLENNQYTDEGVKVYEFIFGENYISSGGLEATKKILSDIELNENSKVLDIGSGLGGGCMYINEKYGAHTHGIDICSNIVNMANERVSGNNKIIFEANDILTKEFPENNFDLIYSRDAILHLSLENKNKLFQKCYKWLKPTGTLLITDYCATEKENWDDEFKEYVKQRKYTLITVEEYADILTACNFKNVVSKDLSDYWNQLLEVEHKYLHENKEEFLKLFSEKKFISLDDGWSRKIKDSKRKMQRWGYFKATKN

C. parvum [4] = assay: Real-time PCR quantification of C. parvum DNA in fecal samples of infected mice; assay type: in vivo, Cryptosporidium parvum
Experimental: In vivo testing of the anti-Cryptosporidium effect of CpLDH inhibitors. Gamma interferon knockout mice (B6.129S7-Ifng), 8 weeks of age, were purchased from Charles River, USA. The care and use of the mice was done following the guidelines of protocol number 17024 approved by the University of Illinois at Urbana-Champaign, USA. The animals were allowed to acclimatize for 1 week before experiments commenced. Stock solutions of recombinant CpLDH inhibitors reconstituted in DMSO were diluted in sterile distilled water to reduce the final amount of DMSO in the solution to less than 1% (v/v) before administering them to mice. Prior to testing the anti-Cryptosporidium effect of the inhibitors in mice, the tolerability of each inhibitor was tested by oral gavage using varying dosages (100-2000 mg/kg body weight) of each inhibitor in groups of mice (three mice for each dose) daily for 7 days. Mice were observed daily for signs of toxicity including changes from normal physical activity, respiration, body temperature, feeding, posture, fur condition or occurrence of death. […] The subsequent dosages of NSC10447 used in the mice infection assays were 250, 500 and 1000 mg/kg mouse body weight, while the NSC158011 dosages used were 100, 200 and 400 mg/kg mouse body weight. Mice were allocated to groups as follows: “Infected plus inhibitor treatment”; “Infected minus inhibitor treatment”; “Uninfected minus inhibitor treatment” and “Infected plus paromomycin treatment”. Each group contained at least three mice. Each mouse in the infection groups received 5,000 C. parvum oocysts (resuspended in 50 μl of PBS) by oral gavage. Mice were housed individually in cages lined with sterile gauze as bedding. One day post-infection (PI), daily oral gavage administration of recombinant CpLDH inhibitor or paromomycin commenced and continued for a total of 7 days. Untreated mice received an equivalent volume of sterile distilled water (containing DMSO equivalent to the amount administered in the inhibitor-treated group) by oral gavage. Fecal pellets were collected daily from each cage and placed in individual sterile 15 ml conical tubes. An equivalent volume of PBS containing a cocktail of penicillin (100 units/ml), streptomycin (100 μg/ml), chloramphenicol (34 μg/ml) and amphotericin (0.25 μg/ml) was added to the fecal samples and stored at 4° C. until use for quantification of C. parvum genomic DNA load. Three independent replicate infection assays were performed. At 9 days PI, mice were euthanized and 5 cm of the distal small intestine resected 2 cm anterior to the cecum and immediately submerged in 4% buffered formalin. The intestinal tissues were submitted for histopathology to the Veterinary Diagnostic Laboratory at the University of Illinois at Urbana-Champaign. Briefly, intestinal tissues preserved in 4% buffered formalin were washed in 70% ethanol and embedded in 1% agar and then processed for paraffin embedding. For hematoxylin and eosin staining, five μm transverse and cross sections were cut and processed and stained following standard procedures of the Veterinary Diagnostic Laboratory. Sections were imaged using a Zeiss microscope and images captured with a color camera.
Quantification of C. parvum shed in mice feces. Genomic DNA was extracted from individual fecal samples collected from mice at different days as described above. For each sample, 220 mg of homogenized feces were used to extract genomic DNA using the QIAamp PowerFecal DNA Kit (Qiagen, USA) following the manufacturer's instructions. Quantification of the amount of C. parvum 18s rRNA gene (GenBank accession number AF164102) was performed essentially as described previously (Int. J. Parasitol. 2018; 48(8), 649-656). Briefly, primers were used to generate a 240 bp amplicon from C. parvum genomic DNA by conventional PCR. […]

SMILES: S=C(CSc1ccccc1)Nc1cccc2ccccc12 [NSC158011]
- highest tolerable dose (no toxicity signs) (Tolerability in mice): 400 mg/kg
- IC50 at 24 h [1]: 149 µM
- effect on parasite growth at 40 μM (Cryptosporidium parvum; 48 h post-infection, 40 μM): blocking parasite growth almost completely
- IC50 (Cryptosporidium parvum; 48 h, compound added at the time of infection, read-out: IC50, inhibition of C. parvum growth at 48 h p.i.): 14.9 µM
- IC50 (Cryptosporidium parvum; 72 h, compound added at the time of infection, read-out: IC50, inhibition of C. parvum growth at 72 h p.i.): 15.6 µM
- IC50 (Cryptosporidium parvum; compound added 2 h post-infection, read-out: IC50, inhibition of C. parvum growth at 48 h p.i. (2 h)): 15.8 µM
- IC50 (Cryptosporidium parvum; compound added 2 h post-infection, read-out: IC50, inhibition of C. parvum growth at 72 h p.i. (2 h)): 16.5 µM
- histopathology of intestinal epithelium and villi (C. parvum [2]): maintained intact intestinal mucosa and villi; also recorded: intact intestinal epithelium with prominent villi
- inhibition of in vitro intracellular growth of P. falciparum (Plasmodium falciparum): inhibit in vitro intracellular growth of the parasite
- inhibition of catalytic activity of P. falciparum phosphoethanolamine methyltransferase [3]: inhibit the catalytic activity
- efficacy lower than paromomycin (C. parvum [4]; NSC158011 200 mg/kg, last three days of treatment): about 10 fold
- shedding of C. parvum oocysts in mice feces (C. parvum [4]; NSC158011 400 mg/kg): significantly (P<. 0.05) reduced
- reduction of shedding of C. parvum in mice feces vs untreated infected mice (C. parvum [4]; NSC158011 400 mg/kg, day 7 post-infection): about 3000 fold
